US20240368135A1 (VERTEX PHARMACEUTICALS INCORPORATED, priority 2021, published 2024)
Where two headings read alike, the source gives them in different places.

Biological target: human NaV 1.8 (Homo sapiens, UniProt Q9Y5Y9)
Assay: E-VIPR assay detecting and measuring NaV inhibition properties
Assay type: cell-based
Conditions: HEK cells expressing truncated human NaV 1.8
Outline: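 HEK cells expressing truncated, fully active human NaV1.8, with KIR2.1 BacMam co-transduction, were loaded with CC2-DMPE/DiSBAC6(3) voltage-sensing dyes for 20 min at room temperature. Compounds were tested in 11-point 3-fold dilutions (300 nM top final), optionally with 25% human serum, under electrical stimulation with FRET read-out.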

[1] = no human serum, read-out: IC50 in the E-VIPR Assay
[2] = in the presence of human serum (compound numbers followed by *), read-out: IC50 in the E-VIPR Assay, performed in the presence of human serum

Sequence of human NaV 1.8 (Q9Y5Y9 126-399 limits assumed): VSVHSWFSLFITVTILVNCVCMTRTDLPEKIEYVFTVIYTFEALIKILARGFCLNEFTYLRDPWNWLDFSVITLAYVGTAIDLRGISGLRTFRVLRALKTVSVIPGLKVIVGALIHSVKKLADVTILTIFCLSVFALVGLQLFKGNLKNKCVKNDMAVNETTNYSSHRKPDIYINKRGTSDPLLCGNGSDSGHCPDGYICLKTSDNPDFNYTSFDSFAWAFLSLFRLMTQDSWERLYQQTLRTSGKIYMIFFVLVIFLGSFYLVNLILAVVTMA
Sequence of human NaV 1.8 (Q9Y5Y9 660-890 limits assumed): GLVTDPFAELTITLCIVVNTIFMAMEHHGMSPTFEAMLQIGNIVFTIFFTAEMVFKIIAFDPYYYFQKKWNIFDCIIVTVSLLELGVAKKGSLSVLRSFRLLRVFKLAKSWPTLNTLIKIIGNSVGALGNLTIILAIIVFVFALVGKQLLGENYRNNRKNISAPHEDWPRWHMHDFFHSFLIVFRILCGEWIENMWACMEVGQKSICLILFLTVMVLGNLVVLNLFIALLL
Sequence of human NaV 1.8 (Q9Y5Y9 1148-1722 limits assumed): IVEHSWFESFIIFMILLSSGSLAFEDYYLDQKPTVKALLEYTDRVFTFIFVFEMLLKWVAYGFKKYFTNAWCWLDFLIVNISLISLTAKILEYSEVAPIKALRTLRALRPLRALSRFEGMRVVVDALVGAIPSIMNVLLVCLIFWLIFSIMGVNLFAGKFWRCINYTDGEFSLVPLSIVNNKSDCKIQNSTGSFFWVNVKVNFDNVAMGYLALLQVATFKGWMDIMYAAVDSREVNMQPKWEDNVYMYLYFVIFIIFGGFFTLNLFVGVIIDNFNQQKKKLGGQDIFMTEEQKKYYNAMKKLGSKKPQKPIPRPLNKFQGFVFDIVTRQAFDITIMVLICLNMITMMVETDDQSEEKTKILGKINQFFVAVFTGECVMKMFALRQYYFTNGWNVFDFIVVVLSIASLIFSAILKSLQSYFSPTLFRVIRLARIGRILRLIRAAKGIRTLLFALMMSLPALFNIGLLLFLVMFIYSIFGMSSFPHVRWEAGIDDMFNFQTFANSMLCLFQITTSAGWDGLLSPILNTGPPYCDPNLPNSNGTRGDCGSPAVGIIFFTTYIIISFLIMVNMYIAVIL

SMILES | IC50 [1] | IC50 [2]
C[C@H]1[C@@H](c2ccc(F)c(F)c2OCCN2CCOCC2)[C@H](C(=O)Nc2cccnc2)O[C@@]1(C)C(F)(F)F [Compound 587, (2R,3S,4S,5R)-3-(3,4-difluoro-2-(2-morpholinoethoxy)phenyl)-4,5-dimethyl-N-(pyridin-3-yl)-5-(trifluoromethyl)tetrahydrofuran-2-carboxamide] | 10 to 100 nM | –
CNC(=O)c1cn2cc(NC(=O)[C@@H]3O[C@@](C)(C(F)(F)F)[C@@H](C)[C@H]3c3ccc(F)c(F)c3OC)ccc2n1 [Compound 258, 6-((2R,3S,4S,5R)-3-(3,4-difluoro-2-methoxyphenyl)-4,5-dimethyl-5-(trifluoromethyl)tetrahydrofuran-2-carboxamido)-N-methylimidazo[1,2-a]pyridine-2-carboxamide] | 10 to 100 nM | –
CCOc1c([C@@H]2[C@@H](C(=O)Nc3ccnc(S(C)(=N)=O)c3)O[C@](C)(C(F)(F)F)[C@@H]2C)ccc(F)c1C (relative stereo) [Compound 124, rel-(2S,3R,4R,5S)-3-(2-ethoxy-4-fluoro-3-methylphenyl)-4,5-dimethyl-N-(2-(S-methylsulfonimidoyl)pyridin-4-yl)-5-(trifluoromethyl)tetrahydrofuran-2-carboxamide] | 100 to 1000 nM | –
COc1c([C@H]2[C@H](C(=O)Nc3ccnc(C4(N)CCOC4)c3)O[C@@](C)(C(F)(F)F)[C@H]2C)ccc(F)c1F (single isomer, unassigned) [Compound 346, rel-(2R*,3S*,4S*,5R*)-N-(2-(3-aminotetrahydrofuran-3-yl)pyridin-4-yl)-3-(3,4-difluoro-2-methoxyphenyl)-4,5-dimethyl-5-(trifluoromethyl)-tetrahydrofuran-2-carboxamide] | < 10 nM | –
C[C@H]1[C@@H](c2ccc(F)c(F)c2OCCO)[C@H](C(=O)Nc2cnn(C)c(=O)c2)O[C@@]1(C)C(F)(F)F [Compound 568, (2R,3S,4S,5R)-3-(3,4-difluoro-2-(2-hydroxyethoxy)phenyl)-4,5-dimethyl-N-(1-methyl-6-oxo-1,6-dihydropyridazin-4-yl)-5-(trifluoromethyl)tetrahydrofuran-2-carboxamide] | 10 to 100 nM | –
COCC(N)c1cc(NC(=O)[C@@H]2O[C@@](C)(C(F)(F)F)[C@@H](C)[C@H]2c2ccc(F)c(F)c2OC)c(F)cn1 (single isomer, unassigned) [Compound 422, rel-(2R*,3S*,4S*,5R*)-N-(2-(1-amino-2-methoxyethyl)-5-fluoropyridin-4-yl)-3-(3,4-difluoro-2-methoxyphenyl)-4,5-dimethyl-5-(trifluoromethyl)-tetrahydrofuran-2-carboxamide] | 10 to 100 nM | –
CCOc1c([C@@H]2[C@@H](C(=O)Nc3ccnc(S(C)(=O)=O)c3)O[C@](C)(C(F)(F)F)[C@@H]2C)ccc(F)c1F (stereo in doubt) [Compound 4, rel-(2S,3R,4R,5S)-3-(2-ethoxy-3,4-difluorophenyl)-4,5-dimethyl-N-(2-(methylsulfonyl)pyridin-4-yl)-5-(trifluoromethyl)tetrahydrofuran-2-carboxamide] | ≥ 1000 nM | –
CN=S(C)(=O)c1cc(NC(=O)C2OC(C)(C(F)(F)F)C(C)C2c2ccc(F)c(C)c2OC)ccn1 (centres unmarked) [Compound 152, N-[2-(N,S-dimethylsulfonimidoyl)-4-pyridyl]-3-(4-fluoro-2-methoxy-3-methyl-phenyl)-4,5-dimethyl-5-(trifluoromethyl)tetrahydrofuran-2-carboxamide] | < 10 nM | –
C[C@H]1[C@@H](c2ccc(F)c(F)c2OC(F)F)[C@H](C(=O)Nc2ccc(CC(C)(C)O)nc2)O[C@@]1(C)C(F)(F)F (single isomer, unassigned) [Compound 462] | 100 to 1000 nM | –
COc1c([C@@H]2[C@@H](C(=O)Nc3cc[n+]([O-])c(C(O)CO)c3)O[C@](C)(C(F)(F)F)[C@@H]2C)ccc(F)c1C (relative stereo) [Compound 138, rel-2-(1,2-dihydroxyethyl)-4-((2S,3R,4R,5S)-3-(4-fluoro-2-methoxy-3-methylphenyl)-4,5-dimethyl-5-(trifluoromethyl)tetrahydrofuran-2-carboxamido)pyridine 1-oxide] | – | ≥ 1000 nM
COc1c([C@H]2C[C@@](C)(C(F)(F)F)O[C@@H]2C(=O)Nc2cc(C(O)CO)ncc2F)ccc(F)c1F (single isomer, unassigned) [Compound 690] | – | ≥ 1000 nM
COc1c([C@H]2[C@H](C(=O)NCC3CCOC3)O[C@@](C)(C(F)(F)F)[C@H]2C)ccc(F)c1F (stereo partly drawn) [Compound 279, (2R,3S,4S,5R)-3-(3,4-difluoro-2-methoxyphenyl)-4,5-dimethyl-N-((tetrahydrofuran-3-yl)methyl)-5-(trifluoromethyl)tetrahydrofuran-2-carboxamide] | ≥ 1000 nM | –
COc1c([C@H]2[C@H](C(=O)Nc3cnc(CO)n3C)O[C@@](C)(C(F)(F)F)[C@H]2C)ccc(F)c1F [Compound 21, (2R,3S,4S,5R)-3-(3,4-difluoro-2-methoxy-phenyl)-N-[2-(hydroxymethyl)-3-methyl-imidazol-4-yl]-4,5-dimethyl-5-(trifluoromethyl)tetrahydrofuran-2-carboxamide] | 10 to 100 nM | –
COc1c([C@H]2[C@H](C(=O)Nc3ccnc(N(C)C(=O)CN(C)C)c3)O[C@@](C)(C(F)(F)F)[C@H]2C)ccc(F)c1F [Compound 522, (2R,3S,4S,5R)-3-(3,4-difluoro-2-methoxy-phenyl)-N-[2-[[2-(dimethylamino)acetyl]-methyl-amino]-4-pyridyl]-4,5-dimethyl-5-(trifluoromethyl)tetrahydrofuran-2-carboxamide] | < 10 nM | –
C[C@H]1[C@@H](c2ccc(F)c(F)c2OCCOC(F)F)[C@H](C(=O)Nc2ccnc(CO)c2)O[C@@]1(C)C(F)(F)F [Compound 641, (2R,3S,4S,5R)-3-(2-(2-(difluoromethoxy)ethoxy)-3,4-difluorophenyl)-N-(2-(hydroxymethyl)pyridin-4-yl)-4,5-dimethyl-5-(trifluoromethyl)tetrahydrofuran-2-carboxamide] | < 10 nM | –
COc1c([C@H]2[C@H](C(=O)Nc3cnc(C(C)(C)O)nc3)O[C@@](C)(C(F)(F)F)[C@H]2C)ccc(F)c1F [Compound 390, (2R,3S,4S,5R)-3-(3,4-difluoro-2-methoxyphenyl)-N-(2-(2-hydroxypropan-2-yl)pyrimidin-5-yl)-4,5-dimethyl-5-(trifluoromethyl)tetrahydrofuran-2-carboxamide] | 10 to 100 nM | –
Cc1nn(C(F)F)cc1NC(=O)[C@@H]1O[C@@](C)(C(F)(F)F)[C@@H](C)[C@H]1c1ccc(F)c(F)c1OCCN1CCOCC1 [Compound 591, (2R,3S,4S,5R)-3-(3,4-difluoro-2-(2-morpholinoethoxy)phenyl)-N-(1-(difluoromethyl)-3-methyl-1H-pyrazol-4-yl)-4,5-dimethyl-5-(trifluoromethyl)tetrahydrofuran-2-carboxamide] | 10 to 100 nM | –
Cc1ccc(NC(=O)C2OC(C)(C(F)(F)F)C(C)C2c2ccc(F)c(F)c2OC2CC(O)C2)cn1 [Compound 661, (2R,3S,4S,5R)-3-(3,4-difluoro-2-((1S,3R)-3-hydroxycyclobutoxy)phenyl)-4,5-dimethyl-N-(6-methylpyridin-3-yl)-5-(trifluoromethyl)tetrahydrofuran-2-carboxamide] | 10 to 100 nM | –
COc1c([C@H]2C[C@@](C)(C(F)(F)F)O[C@@H]2C(=O)Nc2cn(S(C)(=O)=O)nc2C)ccc(F)c1F (stereo in doubt) [Compound 683, rel-(2S,3R,5S)-3-(3,4-difluoro-2-methoxyphenyl)-5-methyl-N-(3-methyl-1-(methylsulfonyl)-1H-pyrazol-4-yl)-5-(trifluoromethyl)tetrahydrofuran-2-carboxamide] | – | ≥ 1000 nM
COc1c([C@H]2[C@H](C(=O)Nc3cc(C4CN(C)CCO4)ncc3F)O[C@@](C)(C(F)(F)F)[C@H]2C)ccc(F)c1F (single isomer, unassigned) [Compound 367, rel-(2R*,3S*,4S*,5R*)-3-(3,4-difluoro-2-methoxyphenyl)-N-(5-fluoro-2-(4-methylmorpholin-2-yl)pyridin-4-yl)-4,5-dimethyl-5-(trifluoromethyl)tetrahydrofuran-2-carboxamide] | 10 to 100 nM | –
COc1c([C@H]2[C@H](C(=O)Nc3ccnc(N4CCN(C)[C@H](C)C4=O)c3)O[C@@](C)(C(F)(F)F)[C@H]2C)ccc(F)c1F [Compound 475, (2R,3S,4S,5R)-3-(3,4-difluoro-2-methoxyphenyl)-N-(2-((R)-3,4-dimethyl-2-oxopiperazin-1-yl)pyridin-4-yl)-4,5-dimethyl-5-(trifluoromethyl)tetrahydrofuran-2-carboxamide] | 10 to 100 nM | –
C[C@@H]1[C@H](c2ccc(F)c(F)c2OC(F)F)[C@@H](C(=O)Nc2cccnc2)O[C@]1(C)C(F)(F)F (single isomer, unassigned) [Compound 66] | – | ≥ 1000 nM
COc1c(C2C(C(=O)Nc3ccnc(C(C)(O)CO)c3)OC(C)(C)C2C)ccc(F)c1F (single isomer, unassigned) [Compound 725, rel-3-(3,4-difluoro-2-methoxyphenyl)-N-(2-(1,2-dihydroxypropan-2-yl)pyridin-4-yl)-4,5,5-trimethyltetrahydrofuran-2-carboxamide] | – | ≥ 1000 nM
C[C@@H]1[C@H](c2ccc(F)c(F)c2OC(F)F)[C@@H](C(=O)Nc2ccc(CC(C)(C)O)nc2)O[C@]1(C)C(F)(F)F (single isomer, unassigned) [Compound 461] | ≥ 1000 nM | –
CCOc1c([C@@H]2[C@@H](C(=O)Nc3ccnc(S(C)(=N)=O)c3)O[C@](C)(C(F)(F)F)[C@@H]2C)ccc(F)c1F (single isomer, unassigned) [Compound 10] | 100 to 1000 nM | –
COCC(O)c1cc(NC(=O)[C@@H]2O[C@@](C)(C(F)(F)F)[C@@H](C)[C@H]2c2ccc(F)c(F)c2OC)ccn1 (single isomer, unassigned) [Compound 222, rel-(2R*,3S*,4S*,5R*)-3-(3,4-difluoro-2-methoxyphenyl)-N-(2-(1-hydroxy-2-methoxyethyl)pyridin-4-yl)-4,5-dimethyl-5-(trifluoromethyl)tetrahydrofuran-2-carboxamide] | < 10 nM | –
